Laboratory results published in BindingDB's records for doi:10.1021/acsmedchemlett.8b00333 (University of Calabria, 2019).
pEC50: −log10 of the molar value.

assay: Inverse agonist activity at GPR55 in human MDA-MB-231 cells assessed as reduction in cell viability incubated for 24 hrs by MTT assay

Structure (SMILES) | pEC50
O=C1C(Cl)=C(N2CCCCC2)C(=O)c2c(O)ccc(O)c21 | 5.80
CCN(CC)C1=C(Cl)C(=O)c2c(O)ccc(O)c2C1=O | < 4.70
CCCCN(CCCC)C1=C(Cl)C(=O)c2c(O)ccc(O)c2C1=O | < 4.70
COc1ccc(OC)c2c1C(=O)C(Cl)=C(N1CCCCC1)C2=O | < 5.00
COc1ccc(OC)c2c1C(=O)C(Cl)=C(N1CCOCC1)C2=O | < 5.00
O=C1C(Cl)=C(N2CCCC2)C(=O)c2c(O)ccc(O)c21 | < 5.00
O=C1C(Cl)=C(N2CCOCC2)C(=O)c2c(O)ccc(O)c21 | 5.57
COc1ccc(OC)c2c1C(=O)C(Cl)=C(Cl)C2=O [2,3-Dichloro-5,8-dimethoxy-[1,4]naphthoquinone] | < 4.70
